In US20020035061A1, “COMPOSITIONS AND METHODS FOR TREATING INFECTIONS USING CATIONIC PEPTIDES ALONE OR IN COMBINATION WITH ANTIBIOTICS” (priority 1996, published 2002):
Values after ≈ are worked out from the molar mass of the structure shown. Values joined by “and” are separate entries in the source; they are usually repeats but may differ in a detail not shown here. Equal entries are not always repeated. Where two headings read alike, the source gives them in different places.

Legend:
Assay in all cases: microbe, parasite or virus in culture
Format in all cases: cell-based
[1] = test system: inherently resistant microorganisms
[2] = test system: bacterial isolates
[3] = test system: microorganisms with acquired resistance; conditions: for MIC comb. (antibiotic agent): with MBI 29
[4] = Acinetobacter baumannii, read-out: Tobramycin MIC Alone, A. baumannii ABI001
[5] = Acinetobacter baumannii, read-out: Tobramycin MIC Alone, A. baumannii ABI002
[6] = Pseudomonas aeruginosa, read-out: Tobramycin MIC Alone, P. aeruginosa PA008
[7] = Pseudomonas aeruginosa, read-out: Tobramycin MIC Alone, P. aeruginosa PA022
[8] = Pseudomonas aeruginosa, read-out: Tobramycin MIC Alone, P. aeruginosa PA025
[9] = Pseudomonas aeruginosa, read-out: Tobramycin MIC Alone, P. aeruginosa PA026
[10] = Pseudomonas aeruginosa, read-out: Tobramycin MIC Alone, P. aeruginosa PA030
[11] = Pseudomonas aeruginosa, read-out: Tobramycin MIC Alone, P. aeruginosa PA032
[12] = Staphylococcus epidermidis, read-out: Tobramycin MIC Alone, S. epidermidis SE068
[13] = Staphylococcus epidermidis, read-out: Tobramycin MIC Alone, S. epidermidis SE072
[14] = Staphylococcus epidermidis, read-out: Tobramycin MIC Alone, S. epidermidis SE073
[15] = Staphylococcus epidermidis, read-out: Tobramycin MIC Alone, S. epidermidis SE080
[16] = Stenotrophomonas maltophilia, read-out: Tobramycin MIC Alone, S. maltophilia SMA029
[17] = Stenotrophomonas maltophilia, read-out: Tobramycin MIC Alone, S. maltophilia SMA030
[18] = Stenotrophomonas maltophilia, read-out: Tobramycin MIC Alone, S. maltophilia SMA031
[19] = Stenotrophomonas maltophilia, read-out: Tobramycin MIC Alone, S. maltophilia SMA032

**Q.** What does the source list for `NC[C@H]1O[C@H](O[C@H]2[C@H](O)[C@@H](O[C@H]3O[C@H](CO)[C@@H](O)[C@H](N)[C@H]3O)[C@H](N)C[C@@H]2N)[C@H](N)C[C@@H]1O` [Tobramycin]?
**A.** MIC ([1]; Staphylococcus aureus, read-out: Tobramycin MIC + Peptide, S. aureus, peptide MBI 11A1CN): 0.125 µg/mL; MIC ([1]; Staphylococcus aureus, read-out: Tobramycin MIC + Peptide, S. aureus, peptide MBI 11D18CN): 4 µg/mL; MIC ([1]; Staphylococcus aureus, read-out: Tobramycin MIC + Peptide, S. aureus, peptide MBI 11F3CN): 2 µg/mL; MIC ([1]; Staphylococcus aureus, read-out: Tobramycin MIC + Peptide, S. aureus, peptide MBI 11G13CN): 0.125 µg/mL; MIC ([1]; Staphylococcus aureus, read-out: Tobramycin MIC + Peptide, S. aureus, peptide MBI 21A1): 0.125 µg/mL; MIC ([1]; Staphylococcus aureus, read-out: Tobramycin MIC + Peptide, S. aureus, peptide MBI 22A1): 4 µg/mL; MIC ([1]; Staphylococcus aureus, read-out: Tobramycin MIC Alone, S. aureus): > 128 µg/mL; MIC ([1]; Staphylococcus haemolyticus, read-out: Tobramycin MIC + Peptide, S. haemolyticus, peptide MBI 11A1CN): 4 µg/mL; MIC ([1]; Staphylococcus haemolyticus, read-out: Tobramycin MIC Alone, S. haemolyticus): 8 µg/mL (≈ 17.1 µM); Tobramycin MIC Alone ([2]; A. baumannii ABI002): 4 µg/mL; MIC [2, 4]: 16 µg/mL (≈ 34.2 µM); MIC [2, 5]: 8 µg/mL (≈ 17.1 µM); MIC ([2]; Burkholderia cepacia, read-out: Tobramycin MIC Alone, B. cepacia BC001): 128 µg/mL (≈ 274 µM); MIC ([2]; Burkholderia cepacia, read-out: Tobramycin MIC Alone, B. cepacia BC002): > 128 µg/mL; MIC ([2]; Escherichia coli, read-out: Tobramycin MIC Alone, E. coli ECO004): 2 µg/mL (≈ 4.28 µM); MIC ([2]; Escherichia coli, read-out: Tobramycin MIC Alone, E. coli ECO006): 8 µg/mL (≈ 17.1 µM); MIC ([2]; Klebsiella pneumoniae, read-out: Tobramycin MIC Alone, K. pneumoniae KP008): 0.5 µg/mL (≈ 1.07 µM); MIC [2, 6]: 32 µg/mL (≈ 68.4 µM); MIC [2, 7]: 8 µg/mL (≈ 17.1 µM); MIC [2, 8]: 32 µg/mL (≈ 68.4 µM); MIC [2, 9]: 8 µg/mL (≈ 17.1 µM); MIC ([2]; Pseudomonas aeruginosa, read-out: Tobramycin MIC Alone, P. aeruginosa PA028): 32 µg/mL (≈ 68.4 µM); MIC ([2]; Pseudomonas aeruginosa, read-out: Tobramycin MIC Alone, P. aeruginosa PA029): 32 µg/mL (≈ 68.4 µM); MIC [2, 10]: 16 µg/mL (≈ 34.2 µM); MIC [2, 11]: 16 µg/mL (≈ 34.2 µM); Tobramycin MIC Alone ([2]; S. haemolyticus SHA005): 4 µg/mL; Tobramycin MIC Alone ([2]; S. maltophilia SMA031): >128 µg/mL; MIC ([2]; Staphylococcus aureus, MRSA, read-out: Tobramycin MIC Alone, S. aureus SA014 (also SA014 MRSA)): > 128 µg/mL; MIC ([2]; Staphylococcus aureus, MRSA, read-out: Tobramycin MIC Alone, S. aureus SA014 MRSA): > 128 µg/mL; MIC ([2]; Staphylococcus aureus, MRSA, read-out: Tobramycin MIC Alone, S. aureus SA018 MRSA): 64 µg/mL (≈ 137 µM); MIC ([2]; Staphylococcus aureus, MRSA, read-out: Tobramycin MIC Alone, S. aureus SA025 (also SA025 MRSA)): > 128 µg/mL; MIC ([2]; Staphylococcus epidermidis, read-out: Tobramycin MIC Alone, S. epidermidis SE067): > 128 µg/mL; MIC [2, 12]: > 128 µg/mL; MIC [2, 13]: > 128 µg/mL; MIC [2, 14]: > 128 µg/mL; MIC [2, 15]: 32 µg/mL (≈ 68.4 µM); MIC ([2]; Staphylococcus haemolyticus, read-out: Tobramycin MIC Alone, S. haemolyticus SHA001): 4 µg/mL (≈ 8.56 µM); MIC ([2]; Staphylococcus haemolyticus, read-out: Tobramycin MIC Alone, S. haemolyticus SHA005): 8 µg/mL (≈ 17.1 µM); MIC ([2]; Stenotrophomonas maltophilia, read-out: Tobramycin MIC Alone, S. maltophilia (strain code stands in r800, not shown)): 128 µg/mL (≈ 274 µM); MIC ([2]; Stenotrophomonas maltophilia, read-out: Tobramycin MIC Alone, S. maltophilia SMA027): 32 µg/mL (≈ 68.4 µM); MIC [2, 16]: 128 µg/mL (≈ 274 µM); MIC [2, 17]: 128 µg/mL (≈ 274 µM); MIC [2, 18]: 128 µg/mL (≈ 274 µM); MIC [2, 19]: 128 µg/mL (≈ 274 µM); MIC ([2]; Stenotrophomonas maltophilia, read-out: Tobramycin MIC Alone, S. maltophilia SMA035): 32 µg/mL (≈ 68.4 µM); MIC comb. (antibiotic agent) ([3]; A. calcoaceticus): 1 µg/mL (≈ 2.14 µM); MIC [3, 4]: 16 µg/mL (≈ 34.2 µM); MIC [3, 5]: 8 µg/mL (≈ 17.1 µM); MIC ([3]; Acinetobacter calcoaceticus, read-out: MIC alone (antibiotic agent), A. calcoaceticus): 8 µg/mL (≈ 17.1 µM); MIC ([3]; Escherichia coli, read-out: Tobramycin MIC Alone, E. coli EC0006): 8 µg/mL (≈ 17.1 µM); Tobramycin MIC Alone ([3]; P. aeruginosa PA032): 8 µg/mL; MIC comb. (antibiotic agent) ([3]; P. aeruginosa): 1 µg/mL (≈ 2.14 µM); MIC ([3]; Pseudomonas aeruginosa, read-out: MIC alone (antibiotic agent), P. aeruginosa): 64 µg/mL (≈ 137 µM); MIC [3, 6]: 32 µg/mL (≈ 68.4 µM); MIC [3, 7]: 8 µg/mL (≈ 17.1 µM); MIC [3, 8]: 32 µg/mL (≈ 68.4 µM); MIC [3, 9]: 8 µg/mL (≈ 17.1 µM); MIC [3, 10]: 16 µg/mL (≈ 34.2 µM); MIC ([3]; Pseudomonas aeruginosa, read-out: Tobramycin MIC Alone, P. aeruginosa PA031): 16 µg/mL (≈ 34.2 µM); MIC [3, 11]: 16 µg/mL (≈ 34.2 µM); Tobramycin MIC Alone ([3]; S. maltophilia SMA031): 128 µg/mL and >128 µg/mL; MIC [3, 12]: > 128 µg/mL; MIC ([3]; Staphylococcus epidermidis, read-out: Tobramycin MIC Alone, S. epidermidis SE071): > 128 µg/mL; MIC [3, 13]: > 128 µg/mL; MIC [3, 14]: > 128 µg/mL; MIC [3, 15]: 16 µg/mL (≈ 34.2 µM); MIC [3, 16]: 128 µg/mL (≈ 274 µM); MIC [3, 17]: 128 µg/mL (≈ 274 µM); MIC [3, 18]: 64 µg/mL (≈ 137 µM); MIC [3, 19]: 128 µg/mL (≈ 274 µM)
